The results in this text go back to US20070179060A1, “6-(Poly-substituted aryl)-4-aminopicolinates and their use as herbicides” (priority 2006, published 2007).

Series [1] relates to redroot pigweed (Amaranthus retroflexus). The series is described as follows: Preemergence herbicidal activity. In kind it is in vivo. The settings on record: pre-emergent, 140 g ai/ha, after 20-22 days; for pest or weed control at 140 g/ha: Amaranthus retroflexus, pre-emergence, 480 h, read-out: % Control AMARE. An excerpt: (§1) Seeds of the desired test plant species were planted in a soil matrix prepared by mixing a loam soil (43 percent silt, 19 percent clay, and 38 percent sand, with a pH of about 8.1 and an organic matter content of about 1.5 percent) and sand in a 70 to 30 ratio. The soil matrix was contained in plastic pots with a surface area of 113 square centimeters. When required to ensure good germination and healthy plants, a fungicide treatment and/or other chemical or physical treatment was applied. […] Compound requirements are based upon a 12 mL application volume at a rate of 187 L/ha. Formulated compounds were applied to the plant material with an overhead Mandel track sprayer equipped with a […] nozzles calibrated to deliver 187 L/ha over an application area of 0.503 square meters at a spray height of 18 inches (43 cm) above the soil surface. Control plants were sprayed in the same manner with the solvent blank. The treated pots and control pots were placed in a greenhouse maintained with an approximate 15 hour photoperiod and temperatures of about 23-29° C. during the day and 22-28° C. during the night. Nutrients and water were added on a regular basis and supplemental lighting was provided with overhead metal halide 1000-watt lamps as necessary. The water was added by top-irrigation.

The test system of series [2] is velvetleaf (Abutilon theophrasti). The series is described as follows: Preemergence herbicidal activity. The format is in vivo. The following applies: pre-emergent, 140 g ai/ha, after 20-22 days; for pest or weed control at 140 g/ha: Abutilon theophrasti, pre-emergence, 480 h, read-out: % Control ABUTH.
Text: as §1

Series [3] concerns lambsquarter (Chenopodium album). The series is described as follows: Preemergence herbicidal activity. The format is in vivo. The settings on record: pre-emergent, 140 g ai/ha, after 20-22 days; for pest or weed control at 140 g/ha: Chenopodium album, pre-emergence, 480 h, read-out: % Control CHEAL.
Text: as §1

The test system of series [4] is redroot pigweed (Amaranthus retroflexus). The series is described as follows: Postemergence herbicidal activity. The settings on record: post-emergent, 140 g ai/ha, after 14 days; for pest or weed control at 140 g/ha: Amaranthus retroflexus, post-emergence, 336 h, read-out: % Control AMARE. The format is in vivo. As to the method:
(§2) Seeds or nutlets of the desired test plant species were planted in Sun Gro MetroMix® 306 planting mixture, which typically has a pH of 6.0 to 6.8 and an organic matter content of about 30 percent, in plastic pots with a surface area of 64 square centimeters. When required to ensure good germination and healthy plants, a fungicide treatment and/or other chemical or physical treatment was applied. The plants were grown for 7-21 days in a greenhouse with an approximate 15 hour photoperiod which was maintained at about 23-29° C. during the day and 22-28° C. during the night. Nutrients and water were added on a regular basis and supplemental lighting was provided with overhead metal halide 1000-Watt lamps as necessary. The plants were employed for testing when they reached the first or second true leaf stage. […] The concentrated stock solutions obtained were diluted with 20 mL of an aqueous mixture containing acetone, water, isopropyl alcohol, DMSO, Atplus 411F crop oil concentrate, and Triton® X-155 surfactant in a 48.5:39:10:1.5:1.0:0.02 v/v ratio to obtain spray solutions containing the highest application rates. […] Compound requirements are based upon a 12 mL application volume at a rate of 187 L/ha. Formulated compounds were applied to the plant material with an overhead Mandel track sprayer equipped with a […] nozzles calibrated to deliver 187 L/ha over an application area of 0.503 square meters at a spray height of 18 inches (43 cm) above the average plant canopy height. Control plants were sprayed in the same manner with the solvent blank. The treated plants and control plants were placed in a greenhouse as described above and watered by sub-irrigation to prevent wash-off of the test compounds. […] By applying the well-accepted probit analysis as described by J. Berkson in Journal of the American Statistical […], 48, 565 (1953) and by D.

The test system of series [5] is velvetleaf (Abutilon theophrasti). The experiment in a line: Postemergence herbicidal activity. In kind it is in vivo. The following applies: post-emergent, 140 g ai/ha, after 14 days; for pest or weed control at 140 g/ha: Abutilon theophrasti, post-emergence, 336 h, read-out: % Control ABUTH. As to the method: as §2
Series [6] has as its system lambsquarter (Chenopodium album). The experiment in a line: Postemergence herbicidal activity. In kind it is in vivo. The following applies: post-emergent, 140 g ai/ha, after 14 days; for pest or weed control at 140 g/ha: Chenopodium album, post-emergence, 336 h, read-out: % Control CHEAL. As to the method: as §2

Each structure is given as a SMILES string.

As for `CCOc1c(Cl)cc(F)c(-c2cc(N)c(Cl)c(C(=O)OC)n2)c1F` [Compound 59, 4-Amino-3-chloro-6-(4-chloro-2,6-difluoro-3-ethoxyphenyl)pyridine-2-carboxylic acid, methyl ester], the pest or weed control at 140 g/ha in series [1] is 100%; in series [2] it was 90%; in series [3], 60%; in series [4], 90%; in series [5], 100%; in series [6], 90%.

On to `COC(=O)c1nc(-c2ccc(Cl)c(C(F)F)c2Cl)cc(N)c1Cl` [Compound 62, 4-Amino-3-chloro-6-(2,4-dichloro-3-difluoromethylphenyl)pyridine-2-carboxylic acid, methyl ester], for which the pest or weed control at 140 g/ha in series [1], in series [2], in series [3], in series [4], in series [5] and in series [6] was 100% each time.

Consider `COC(=O)c1nc(-c2ccc(Cl)c(C(C)F)c2Cl)cc(N)c1Cl` (stereo not drawn) [Compound 63], for which the “% Control AMARE” value in series [1] and in series [4] was 100% throughout. Moreover, the “% Control ABUTH” value in series [2] and in series [5] was 100% throughout. The “% Control CHEAL” value in series [3] and in series [6] was 100% throughout.

The melting point is the temperature of the solid-liquid transition. Turning to `CCOc1c(F)ccc(-c2cc(N)c(Cl)c(C(=O)OC)n2)c1F` [Compound 80, 4-Amino-3-chloro-6-(2,4-difluoro-3-ethoxyphenyl)pyridine-2-carboxylic acid, methyl ester], the melting point lay in the range of 158 to 159 °C. In addition, the pest or weed control at 140 g/ha in series [4] is 100%. In addition, the pest or weed control at 140 g/ha in series [5] amounted to 100%. For the same compound, the pest or weed control at 140 g/ha in series [6] came out at 95%.

Consider `COC(=O)c1nc(-c2ccc(Cl)c(C3CC3)c2F)cc(N)c1Cl` [Compound 81, 4-Amino-3-chloro-6-(4-chloro-3-cyclopropyl-2-fluorophenyl)pyridine-2-carboxylic acid, methyl ester], for which the melting point lay within 135 to 136.5 °C. The pest or weed control at 140 g/ha in series [4] is 100%. Moreover, the pest or weed control at 140 g/ha in series [5] stood at 100%. In addition, the pest or weed control at 140 g/ha in series [6] came to 95%.

Regarding `Cc1c(Cl)ccc(-c2cc(N)c(Cl)c(C(=O)O)n2)c1Cl` [Compound 98, 4-Amino-3-chloro-6-(2,4-dichloro-3-methylphenyl)pyridine-2-carboxylic acid], the melting point was 170 to 172 °C (dec.). In series [4], the pest or weed control at 140 g/ha was determined as 70%. Further, the pest or weed control at 140 g/ha in series [5] was 90%. Besides, the pest or weed control at 140 g/ha in series [6] was determined as 80%.

Turning to `Nc1cc(-c2ccc(Cl)c(C(F)F)c2F)nc(C(=O)O)c1Cl` [Compound 106, 4-Amino-3-chloro-6-(4-chloro-2-fluoro-3-difluoromethylphenyl)pyridine-2-carboxylic acid], the melting point is 182 to 183 °C (dec.). The pest or weed control at 140 g/ha in series [4] stood at 100%. Moreover, the pest or weed control at 140 g/ha in series [5] was found to be 90%. Moreover, in series [6], the pest or weed control at 140 g/ha came to 90%.

Turning to `COc1c(C(F)(F)F)ccc(-c2cc(N)c(Cl)c(C(=O)O)n2)c1F` [Compound 107, 4-Amino-3-chloro-6-(2-fluoro-3-methoxy-4-trifluoromethylphenyl)pyridine-2-carboxylic acid], the melting point was 177 to 178 °C (dec.). For the same compound, the pest or weed control at 140 g/ha in series [4] came to 80%. In addition, the pest or weed control at 140 g/ha in series [5] came to 100%. Further, the pest or weed control at 140 g/ha in series [6] amounted to 90%.

Turning to `CN(C)c1cc(-c2cc(N)c(Cl)c(C(=O)O)n2)c(F)cc1Cl` [Compound 111, 4-Amino-3-chloro-6-(4-chloro-5-dimethyamino-2-fluorophenyl)pyridine-2-carboxylic acid], in series [1], the “% Control AMARE” value was 100%. In series [2], the “% Control ABUTH” value is listed as 35%. Moreover, the “% Control CHEAL” value in series [3] is 100%.

As to `CN(C)c1c(Cl)ccc(-c2cc(N)c(Cl)c(C(=O)O)n2)c1Cl` [Compound 117, 4-Amino-3-chloro-6-[2,4-dichloro-3-(dimethylamino)phenyl]pyridine-2-carboxylic acid], the melting point is 177 to 178 °C. Further, in series [4], the pest or weed control at 140 g/ha worked out at 100%. Further, in series [5], the pest or weed control at 140 g/ha worked out at 100%. The pest or weed control at 140 g/ha in series [6] turned out to be 100%.

Regarding `CNc1c(Cl)ccc(-c2cc(N)c(Cl)c(C(=O)O)n2)c1F` [Compound 118, 4-Amino-3-chloro-6-[4-chloro-2-fluoro-3-(methylamino)phenyl]pyridine-2-carboxylic acid], the melting point lay within 185 to 186 °C. Also, the pest or weed control at 140 g/ha in series [4] is 100%. Besides, the pest or weed control at 140 g/ha in series [5] turned out to be 100%. Further, the pest or weed control at 140 g/ha in series [6] was 100%.

In turn, `COc1c(C)ccc(-c2cc(N)c(Cl)c(C(=O)O)n2)c1F` [Compound 119, 4-Amino-3-chloro-6-(2-fluoro-3-methoxy-4-methylphenyl)pyridine-2-carboxylic acid] had a melting point of 178 to 179 °C. For the same compound, the pest or weed control at 140 g/ha in series [4] is 100%. For the same compound, in series [5], the pest or weed control at 140 g/ha was found to be 100%. In series [6], the pest or weed control at 140 g/ha was 95%.

With `Nc1cc(-c2ccc(Cl)c(C(F)F)c2Cl)nc(C(=O)O)c1Cl` [Compound 126, 4-Amino-3-chloro-6-(2,4-dichloro-3-difluoromethylphenyl)pyridine-2-carboxylic acid], the melting point was 182 to 183 °C (dec.). The pest or weed control at 140 g/ha in series [4] stood at 100%. Further, the pest or weed control at 140 g/ha in series [5] was 90%. In addition, the pest or weed control at 140 g/ha in series [6] stood at 100%.

For the compound `Nc1cc(-c2ccc(Cl)c(C(F)C(F)(F)F)c2F)nc(C(=O)O)c1Cl` (stereo not drawn) [Compound 129, 4-Amino-3-chloro-6-[4-chloro-2-fluoro-3-(1,2,2,2-tetrafluoroethyl)-phenyl)pyridine-2-carboxylic acid], the melting point was 175 to 176 °C (dec.). The pest or weed control at 140 g/ha in series [4] stood at 95%. Further, the pest or weed control at 140 g/ha in series [5] was 85%. In series [6], the pest or weed control at 140 g/ha is 90%.

Take `CCC(F)c1c(Cl)ccc(-c2cc(N)c(Cl)c(C(=O)OC)n2)c1F` (stereo not drawn) [Compound 130, 4-Amino-3-chloro-6-[4-chloro-2-fluoro-3-(1-fluoropropyl)phenyl]pyridine-2-carboxylic acid, methyl ester]: the melting point is 165 to 167 °C (dec.). In addition, in series [4], the pest or weed control at 140 g/ha is 95%. Besides, the pest or weed control at 140 g/ha in series [5] came out at 80%. The pest or weed control at 140 g/ha in series [6] was 95%.

`Nc1cc(-c2ccc(Cl)c(OC(F)F)c2F)nc(C(=O)O)c1Cl` [Compound 134, 4-Amino-3-chloro-6-(4-chloro-3-difluoromethoxy-2-fluorophenyl)pyridine-2-carboxylic acid]: the melting point was 179 °C (dec.). Further, in series [4], the pest or weed control at 140 g/ha worked out at 100%. In addition, the pest or weed control at 140 g/ha in series [5] is 95%. The pest or weed control at 140 g/ha in series [6] stood at 90%.
